Experimental data: patent publication US20230150924A1, “NOVEL COMPOUND HAVING CANCER METASTASIS INHIBITORY ACTIVITY, PREPARATION METHOD THEREFOR, AND PHARMACEUTICAL COMPOSITION FOR INHIBITING CANCER METASTASIS AND INVASION OR TREATING COLORECTAL CANCER, COMPRISING COMPOUND” (CELLGENTEK CO., LTD., priority 2019, published 2023)

Columns and labels:
[1] = system: invasion of colorectal cancer cells; test: In vivo relative invation (invasion; EV and KITENIN controls, no method described); conditions: relative to EV (=1); KIT = KITENIN
[2] = system: KAI1 promoter; test: KAI1 promoter luciferase reporter assay in transfected Caco2 cells; type: cell-based, human; conditions: Homo sapiens, Caco-2, 16 h, 1 μM compound, 16 hours, transfected Caco2 cells, luciferase activity relative to DMSO control (=1); read-out: Relative KAI promoter activity

| Compound | In vivo relative invation [1] | fold induction at 1 µM [2] |
| --- | --- | --- |
| O=C(CNC(=O)c1cccc([N+](=O)[O-])c1)c1ccc(Cl)cc1 [Example 77, N-(2-(4-chlorophenyl)-2-oxoethyl)-3-nitrobenzamide] | 1.274 | 0.92 |
| O=C(CNC(=O)c1ccccc1OC1CCN(C(=O)c2cc(C(F)(F)F)cc(C(F)(F)F)c2)CC1)c1ccccc1 [Example 190, 2-((1-(3,5-bis(trifluoromethyl)benzoyl)piperidin-4-yl)oxy)-N-(2-oxo-2-phenylethyl)benzamide] | 1.203 | 0.83 |
| O=C(CNC(=O)c1ccc(F)c(F)c1)c1ccccc1 [Example 35, 3,4-difluoro-N-(2-oxo-2-phenylethyl)benzamide] | 0.8811 | 1.28 |
| O=C(CNC(=O)c1ccccc1OC1CCN(C(=O)N2CCOCC2)CC1)c1ccccc1 [Example 171, 2-((1-(morpholine-4-carbonyl)piperidin-4-yl)oxy)-N-(2-oxo-2-phenylethyl)benzamide] | 1.191 | 1.07 |
| C/C=C/C(=O)NCC(=O)c1cccc(OC)c1 [Example 123, (E)-N-(2-(3-methoxyphenyl)-2-oxoethyl)but-2-enamide] | 1.312 | 1.14 |
| O=C(CNC(=O)c1ccc(F)cc1F)c1ccc(Cl)cc1 [Example 64, N-(2-(4-chlorophenyl)-2-oxoethyl)-2,4ifluorobenzamide] | 1.083 | 1.35 |
| O=C(CNC(=O)c1ccccc1OC1CCN(C(=O)c2cccc(Cl)c2)CC1)c1ccccc1 [Example 157, 2-((1-(3-chlorobenzoyl)piperidin-4-yl)oxy)-N-(2-oxo-2-phenylethyl)benzamide] | 1.089 | 1.05 |
| COc1cccc(C(=O)CNC(=O)c2cccc(CN3CCN(CCO)CC3)c2)c1 [Example 292, 3-((4-(2-hydroxyethyl)piperazin-1-yl)methyl)-N-(2-(3-methoxyphenyl)-2-oxoethyl)benzamide] | 1.238 | 1.45 |
| COc1ccc(NC(=O)COc2ccccc2C(=O)NCC(=O)c2ccccc2)cc1OC [Example 216, 2-(2-((3,4-dimethoxyphenyl)amino)-2-oxoethoxy)-N-(2-oxo-2-phenylethyl)benzamide] | 1.255 | 1.2 |
| CN(C)c1ccc(C(=O)CNC(=O)c2ccc(OC(F)(F)F)cc2)cc1 [Example 119, N-(2-(4-(dimethylamino)phenyl)-2-oxoethyl)-4-(trifluoromethoxy)benzamide] | 1.203 | 1.35 |
| O=C(CNC(=O)c1cc(Cl)cc(Cl)c1)c1ccc(Cl)cc1 [Example 79, 3,5-dichloro-N-(2-(4-chlorophenyl)-2-oxoethyl)benzamide] | 1.102 | 1.03 |
| CN(C)c1ccc(C(=O)CNS(=O)(=O)Cc2ccccc2)cc1 [Example 110, N-(2-(4-(dimethylamino)phenyl)-2-oxoethyl)-1-phenylmethanesulfonamide] | 1.009 | 1.49 |
| CCC(=O)NCC(=O)c1ccccc1 [Example 14, N-(2-oxo-2-phenylethyl)propionamide] | 0.9106 | 1.02 |
| O=C(CNC(=O)c1cccc(CN2CCN(c3ccccn3)CC2)c1)c1ccccc1 [Example 240, N-(2-oxo-2-phenylethyl)-3-((4-(pyridin-2-yl)piperazin-1-yl)methyl)benzamide] | 1.1 | 1.3 |
| CN(CCO)Cc1ccc(C(=O)NCC(=O)c2ccccc2)cc1 [Example 267, 4-(((2-hydroxyethyl) (methyl)amino)methyl)-N-(2-oxo-2-phenylethyl)benzamide] | 0.9046 | 3.56 |
| CCCN(CC)Cc1cccc(C(=O)NCC(=O)c2cccc(OC)c2)c1 [Example 294, 3-((ethyl(propyl)amino)methyl)-N-(2-(3-methoxyphenyl)-2-oxoethyl)benzamide] | 1.033 | 1.57 |
| O=C(CNC(=O)C1CCC1)c1ccccc1 [Example 17, N-(2-oxo-2-phenylethyl)cyclobutanecarboxamide] | 0.9288 | 0.98 |
| O=C(CNC(=O)c1ccc(CN2CCN(c3ccc([N+](=O)[O-])cc3)CC2)cc1)c1ccccc1 [Example 261, 4-((4-(4-nitrophenyl)piperazin-1-yl)methyl)-N-(2-oxo-2-phenylethyl)benzamide] | 1.197 | 1.25 |
| C/C=C/C(=O)N1CCC(Oc2ccccc2C(=O)NCC(=O)c2ccccc2)CC1 [Example 158, (E)-2-((1-(but-2-enoyl)piperidin-4-yl)oxy)-N-(2-oxo-2-phenylethyl)benzamide] | 1.171 | 1 |
| CCCc1ccccc1NC(=O)COc1ccccc1C(=O)NCC(=O)c1ccccc1 [Example 210, 2-(2-oxo-2-((2-propylphenyl)amino)ethoxy)-N-(2-oxo-2-phenylethyl)benzamide] | 0.9274 | 1.03 |

| Compound | In vivo relative invation [1] | fold induction at 1 µM [2] |
| --- | --- | --- |
| COc1cccc(C(=O)CNC(=O)c2cccc(CN3CCN(c4ccccn4)CC3)c2)c1 [Example 284, N-(2-(3-methoxyphenyl)-2-oxoethyl)-3-((4-(pyridin-2-yl)piperazin-1-yl)methyl)benzamide] | 1.276 | 1.44 |
| Cc1ccc(S(=O)(=O)N2CCC(Oc3ccccc3C(=O)NCC(=O)c3ccccc3)CC2)cc1 [Example 185, N-(2-oxo-2-phenylethyl)-2-((1-tosylpiperidin-4-yl)oxy)benzamide] | 1.114 | 1.12 |
| O=C(CNC(=O)c1ccccc1OC1CCN(C(=O)C2CC2)CC1)c1ccccc1 [Example 166, 2-((1-(cyclopropanecarbonyl)piperidin-4-yl)oxy)-N-(2-oxo-2-phenylethyl)benzamide] | 1.094 | 1.01 |
| O=C(CNS(=O)(=O)Cc1ccccc1)c1ccc(Cl)cc1 [Example 70, N-(2-(4-chlorophenyl)-2-oxoethyl)-1-phenylmethanesulfonamide] | 1.274 | 0.81 |
| CN(C)c1ccc(C(=O)CNC(=O)c2cccc(C(F)(F)F)c2)cc1 [Example 113, N-(2-(4-(dimethylamino)phenyl)-2-oxoethyl)-3-(trifluoromethyl)benzamide] | 1.167 | 1.4 |
| COc1cc(C)ccc1NC(=O)COc1ccccc1C(=O)NCC(=O)c1ccccc1 [Example 206, 2-(2-((2-methoxy-4-methylphenyl)amino)-2-oxoethoxy)-N-(2-oxo-2-phenylethyl)benzamide] | 1.11 | 1.05 |
| O=C(CNC(=O)c1cccc(Cl)c1Cl)c1ccc(Cl)cc1 [Example 80, 2,3-dichloro-N-(2-(4-chlorophenyl)-2-oxoethyl)benzamide] | 1.183 | 0.86 |
| O=C(CNS(=O)(=O)c1ccc(F)cc1)c1ccc(Cl)cc1 [Example 67, N-(2-(4-chlorophenyl)-2-oxoethyl)-4-fluorobenzenesulfonamide] | 1.175 | 0.87 |
| CC(C)(C)C(=O)NCC(=O)c1ccccc1 [Example 24, N-(2-oxo-2-phenylethyl)pivalamide] | 1.128 | 0.84 |
| CCCCN(C)Cc1cccc(C(=O)NCC(=O)c2ccccc2)c1 [Example 246, 3-((butyl (methyl)amino)methyl)-N-(2-oxo-2-phenylethyl)benzamide] | 1.148 | 1.88 |
| COc1cc(OC)cc(C(=O)NCC(=O)c2ccc(N(C)C)cc2)c1 [Example 121, N-(2-(4-(dimethylamino)phenyl)-2-oxoethyl)-3,5imethoxybenzamide] | 1.203 | 0.96 |
| O=C(COc1ccccc1C(=O)NCC(=O)c1ccccc1)Nc1cccc(Br)c1 [Example 225, 2-(2-((3-bromophenyl)amino)-2-oxoethoxy)-N-(2-oxo-2-phenylethyl)benzamide] | 1.235 | 1.35 |
| CCCNC(=O)COc1ccccc1C(=O)NCC(=O)c1ccccc1 [Example 228] | 1.278 | 0.982 |
| O=C(CNC(=O)C1CC1)c1ccc(N2CCOCC2)cc1 [Example 143, N-(2-(4-morpholinophenyl)-2-oxoethyl)cyclopropanecarboxamide] | 0.8028 | 1.16 |
| O=C(CNC(=O)c1ccccc1OC1CCN(C(=O)c2cccc(C(F)(F)F)c2)CC1)c1ccccc1 [Example 192, N-(2-oxo-2-phenylethyl)-2-((1-(3-(trifluoromethyl)benzoyl)piperidin-4-yl)oxy)benzamide] | 1.25 | 0.92 |
| O=C(CNC(=O)c1ccc(F)cc1)c1ccc(Cl)cc1 [Example 45, N-(2-(4-chlorophenyl)-2-oxoethyl)-4-fluorobenzamide] | 1.476 | 0.84 |
| O=C(CNC(=O)c1cccc(C(F)(F)F)c1)c1ccc(Cl)cc1 [Example 74, N-(2-(4-chlorophenyl)-2-oxoethyl)-3-(trifluoromethyl)benzamide] | 1.17 | 0.78 |
| O=C(CNC(=O)c1ccccc1OC1CCN(C(=O)c2ccc(F)cc2F)CC1)c1ccccc1 [Example 177, 2-((1-(2,4-difluorobenzoyl)piperidin-4-yl)oxy)-N-(2-oxo-2-phenylethyl)benzamide] | 1.159 | 0.95 |
| COc1cccc(C(=O)CNC(=O)c2cccc(CN3CC(C)OC(C)C3)c2)c1 (stereo not drawn) [Example 295, 3-((2,6-dimethylmorpholino)methyl)-N-(2-(3-methoxyphenyl)-2-oxoethyl)benzamide] | 1.311 | 1.52 |
